The text below walks through data of US20110218515A1, “Methods for Treating Acute Myocardial Infarctions and Associated Disorders” (The Regents of the University of California, priority 2009, published 2011).

Experiment [1] has as its system congestive heart failure dogs, coronary perfused left ventricular preparation. The experiment in a line: VF frequency domain analysis (dominant frequency), pacing-induced heart failure dogs. The experiment is classed as in vivo. The following applies: CHF dogs with PFD. An excerpt: Animal Models: Twenty-four dogs weighing 25-30 Kg were divided into three groups: control (n=11), congestive heart failure (n=7), and congestive heart failure with the antifibrotic drug pirfenidone (n=6). Heart Failure (CHF) was induced in 7 dogs via four weeks of rapid ventricular pacing via a lead placed in the RV and pulse generator set to pace at 240 bpm followed by ablation of the AV node to create complete heart block, as described in Li, et al., Circulation 1999; 100:87-95. Ventricular function was monitored weekly with transthoracic echocardiography for 4 weeks. At 4 weeks, the optical mapping study was performed.
Heart Failure with Pirfenidone (PFD): Heart failure was induced in 6 dogs as described above and PFD was administered as described in Lee et al., Circulation 2006; 114; 1703-12. Oral PFD (800 mg 3 times per day; InterMune, Brisbane, Calif.) was started 2 days before the initiation of pacing and was discontinued >6 half-lives (24 hours) before the optical mapping study.
With an optical mapping system described in Wu et al., J Cardiovasc Electrophysiol 1998; 9:1336-47, optical recordings were then made from 4-cm^2 area on 3 surfaces of the preparation (epicardial, endocardial (including the papillary muscle, and transmural) by a 16×16 photodiode array (C4657 Hamamatsu, Bridgewater, N.J.) that recorded 256 simultaneous optical action potentials. During optical recordings from a preparation, contractility was blocked with 15 mM 2,3-butadione monoxime (BDM; Sigma-Aldrich)11. Plunge electrodes were placed on the recording surface around the field of view for both pacing and monitoring. Two plunge electrodes were dedicated for recording a bipolar signal for monitoring the electrical activity of the preparation. VF was initiated with either extra stimuli or with rapid burst pacing at a cycle length of 50 ms, a pulse width of 9.9 ms, and an output of 9.9 mA. Several 4-s episodes of VF were recorded on each surface in each preparation. Activation movies of the VF were then viewed, and the activation patterns were determined. After termination of VF, signals were obtained during pacing at 250 ms and isochronal maps of activation were constructed to look at conduction. Activation patterns and wave-front direction during VF were determined from raw fluorescence movies (isopotential). […] VF was defined as rapid and irregular activations on the bipolar signal used for monitoring the electrical activity of the preparation.
Signal Processing and Frequency Domain Analysis: The signals obtained from the optical mapping recordings were sampled at 2,000 Hz, and for each signal the dominant frequency (DF) was determined and the organization was calculated as described Everett, et al., IEEE Trans Biomed Eng 2001; 48:969-78. Briefly, a fast Fourier transform (FFT) was calculated on the digitally filtered waveform. The data were detrended and multiplied by a Hamming window. The largest peak of the resulting magnitude spectrum was identified, and the positions of the harmonic peaks were determined on the basis of its position. The areas under the largest peak and three of its harmonic peaks were each calculated over a 1-Hz window. This produced an area under four peaks. The total area of the spectrum was calculated from 2 Hz up to but not including the fifth harmonic peak. The ratio of the power under the harmonic peaks to the total power in this range was calculated, and the resulting number was defined as the organization index (OI). The OI was theorized to represent the organization of AF for that signal at that period in time. To calculate the variance of the DFs, spatial coefficient of variance (SD/mean) of the DFs during a single episode of AF among all recording sites and temporal coefficient of variance of average DFs from among AF episodes for each mapping field within each preparation were calculated. Discrete, stable, high frequency areas were noted. […]

In experiment [2] the test system is TNF-α, TGF-β1, bFGF, PDGF, and EGF. The following applies: literature report; cited from earlier work.

`Cc1ccc(=O)n(-c2ccccc2)c1` [pirfenidone]: the “dogs with at least one surface with VF characterized by high DF areas” value in experiment [1] (CHF 6 of 7, Controls 3 of 11) is 3 of 6. Also, the “gradient of frequencies over distance, transmural surface” value in experiment [1] (untreated heart failure animals have a very large gradient) is reported as “preserved the transmural gradient to that similar to control animals”. Moreover, in experiment [1] (Endocardium), the “DF Spatial CoV” value was determined as 0.11 ± 0.04, the “DF Temporal CoV” value is given as 0.07 ± 0.03, the “Max DF” value was found to be 10.44 ± 1.32 Hz and the “Mean DF” value was determined as 8.29 ± 0.68 Hz. Further, in experiment [1] (Epicardium), the “DF Spatial CoV” value came out at 0.09 ± 0.04, the “DF Temporal CoV” value is recorded as 0.05 ± 0.01, the “Max DF” value worked out at 10.92 ± 0.98 Hz and the “Mean DF” value was determined as 9.17 ± 1.08 Hz. For the same compound, in experiment [1] (Transmural), the “DF Spatial CoV” value is 0.14 ± 0.06, the “DF Temporal CoV” value was 0.08 ± 0.02, the “Max DF” value was determined as 10.24 ± 1.89 Hz and the “Mean DF” value came out at 7.93 ± 1.52 Hz. Further, in experiment [2], the “biosynthesis or release of various cytokines such as TNF-α, TGF-β1, bFGF, PDGF, and EGF” value is recorded as “inhibit excessive biosynthesis or release”; the collagen expression result is “decrease collagen expression”.
